Assays:
Assay in all cases: biochemical
Set-up in all cases: DiscoveRx KINOMEscan competition binding, percent of DMSO control signal at 100 nM
Conditions in all cases: read-out: Fig. 4a / Percent Control / Compound 1; percent of DMSO control, competition binding
[1] = biological target: T1, RSK4(Kin.Dom.2-C-terminal) (Homo sapiens, UniProt Q9UK32)
T1 construct: gene RPS6KA6; Kin.Dom.2-C-terminal
Procedure: (§1) The kinase selectivity profile was performed by using the DiscoveRx KINOMEscan platform. […] Test compounds were prepared as 40× stocks in 100% DMSO and directly diluted into the assay. The results were defined as a percentage of signal between the negative (DMSO, 100% control) and the positive (control compound, 0% control) control, which was calculated as follows: percent control = [(test compound signal − positive control signal)/(negative control signal − positive control signal)] × 100.

ZAK = biological target: T2, ZAK (Homo sapiens, UniProt Q9NYL2)
T2 construct: gene MAP3K20
Procedure: as §1

IKK-alpha = biological target: T3, IKK-alpha (Homo sapiens, UniProt O15111)
T3 construct: gene CHUK
Procedure: as §1

TSSK3 = TSSK3 (Homo sapiens, UniProt Q96PN8)
Procedure: as §1

PIK3CA(H1047L) = PIK3CA(H1047L) (Homo sapiens, UniProt P42336, H1047L)
Procedure: as §1

PDGFRB = PDGFRB (Homo sapiens, UniProt P09619)
Procedure: as §1

MAP4K2 = MAP4K2 (Homo sapiens, UniProt Q12851)
Procedure: as §1

RET(V804M) = RET(V804M) (Homo sapiens, UniProt P07949, V804M)
Procedure: as §1

LATS1 = LATS1 (Homo sapiens, UniProt O95835)
Procedure: as §1

SGK2 = SGK2 (Homo sapiens, UniProt Q9HBY8)
Procedure: as §1

CHEK2 = CHEK2 (Homo sapiens, UniProt O96017)
Procedure: as §1

PIK3CA(Q546K) = PIK3CA(Q546K) (Homo sapiens, UniProt P42336, Q546K)
Procedure: as §1

[2] = biological target: T4, RSK1(Kin.Dom.1-N-terminal) (Homo sapiens, UniProt Q15418)
T4 construct: gene RPS6KA1; Kin.Dom.1-N-terminal
Procedure: as §1

MKNK2 = MKNK2 (Homo sapiens, UniProt Q9HBH9)
Procedure: as §1

LZK = biological target: T5, LZK (Homo sapiens, UniProt O43283)
T5 construct: gene MAP3K13
Procedure: as §1

[3] = biological target: EGFR(L747-E749del, A750P) (Homo sapiens, UniProt P00533, A750P/DEL747-749)
Procedure: as §1

VRK2 = VRK2 (Homo sapiens, UniProt Q86Y07)
Procedure: as §1

MAP3K15 = MAP3K15 (Homo sapiens, UniProt Q6ZN16)
Procedure: as §1

PAK1 = PAK1 (Homo sapiens, UniProt Q13153)
Procedure: as §1

IRAK1 = IRAK1 (Homo sapiens, UniProt P51617)
Procedure: as §1

MLK3 = biological target: T6, MLK3 (Homo sapiens, UniProt Q16584)
T6 construct: gene MAP3K11
Procedure: as §1

CSNK1A1L = CSNK1A1L (Homo sapiens, UniProt Q8N752)
Procedure: as §1

[4] = biological target: T7, TYK2(JH2domain-pseudokinase) (Homo sapiens, UniProt P29597)
T7 construct: JH2domain-pseudokinase
Procedure: as §1

MRCKB = biological target: T8, MRCKB (Homo sapiens, UniProt Q9Y5S2)
T8 construct: gene CDC42BPB
Procedure: as §1
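Note: KINOMEscan kinase panel binding assay, signal normalized between DMSO as 100% and a positive control compound as 0%.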

CHEK2, sequence (O96017 whole entry): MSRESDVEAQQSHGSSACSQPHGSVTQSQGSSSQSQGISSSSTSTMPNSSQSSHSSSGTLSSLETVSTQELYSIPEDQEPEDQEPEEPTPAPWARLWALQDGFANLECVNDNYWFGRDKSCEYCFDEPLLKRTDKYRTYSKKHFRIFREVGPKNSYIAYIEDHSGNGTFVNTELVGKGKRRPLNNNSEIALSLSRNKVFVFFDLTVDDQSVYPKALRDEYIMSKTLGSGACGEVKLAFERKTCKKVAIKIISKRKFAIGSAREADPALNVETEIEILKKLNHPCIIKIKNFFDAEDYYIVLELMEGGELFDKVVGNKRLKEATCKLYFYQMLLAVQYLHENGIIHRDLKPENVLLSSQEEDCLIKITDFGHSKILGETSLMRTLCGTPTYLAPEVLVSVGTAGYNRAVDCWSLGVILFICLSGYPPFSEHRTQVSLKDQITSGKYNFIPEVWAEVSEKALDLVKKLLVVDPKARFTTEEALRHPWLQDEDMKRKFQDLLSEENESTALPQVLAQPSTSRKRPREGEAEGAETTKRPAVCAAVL
T6 sequence (Q16584 whole entry): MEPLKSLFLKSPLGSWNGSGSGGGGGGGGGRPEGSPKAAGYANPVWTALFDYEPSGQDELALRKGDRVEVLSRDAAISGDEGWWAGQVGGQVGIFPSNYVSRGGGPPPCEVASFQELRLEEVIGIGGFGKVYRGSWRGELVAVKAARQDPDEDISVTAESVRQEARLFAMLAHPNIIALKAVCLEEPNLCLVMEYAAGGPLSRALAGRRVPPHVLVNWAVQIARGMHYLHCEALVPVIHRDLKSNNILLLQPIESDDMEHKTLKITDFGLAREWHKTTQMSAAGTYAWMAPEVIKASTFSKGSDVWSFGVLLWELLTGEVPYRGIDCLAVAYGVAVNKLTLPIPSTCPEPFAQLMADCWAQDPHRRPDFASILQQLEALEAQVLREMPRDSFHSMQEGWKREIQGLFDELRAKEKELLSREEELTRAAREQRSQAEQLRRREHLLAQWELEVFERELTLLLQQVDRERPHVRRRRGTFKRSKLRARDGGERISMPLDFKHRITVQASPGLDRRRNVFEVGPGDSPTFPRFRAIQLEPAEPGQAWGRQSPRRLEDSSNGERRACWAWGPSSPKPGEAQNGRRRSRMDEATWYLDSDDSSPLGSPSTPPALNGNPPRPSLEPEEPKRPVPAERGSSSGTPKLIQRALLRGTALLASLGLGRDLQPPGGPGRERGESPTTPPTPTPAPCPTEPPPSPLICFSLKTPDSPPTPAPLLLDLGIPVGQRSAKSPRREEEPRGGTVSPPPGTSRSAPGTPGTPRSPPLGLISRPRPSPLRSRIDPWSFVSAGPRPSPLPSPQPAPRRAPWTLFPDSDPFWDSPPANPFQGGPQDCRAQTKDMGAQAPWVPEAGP
PIK3CA(Q546K), sequence (P42336 whole entry Q546K): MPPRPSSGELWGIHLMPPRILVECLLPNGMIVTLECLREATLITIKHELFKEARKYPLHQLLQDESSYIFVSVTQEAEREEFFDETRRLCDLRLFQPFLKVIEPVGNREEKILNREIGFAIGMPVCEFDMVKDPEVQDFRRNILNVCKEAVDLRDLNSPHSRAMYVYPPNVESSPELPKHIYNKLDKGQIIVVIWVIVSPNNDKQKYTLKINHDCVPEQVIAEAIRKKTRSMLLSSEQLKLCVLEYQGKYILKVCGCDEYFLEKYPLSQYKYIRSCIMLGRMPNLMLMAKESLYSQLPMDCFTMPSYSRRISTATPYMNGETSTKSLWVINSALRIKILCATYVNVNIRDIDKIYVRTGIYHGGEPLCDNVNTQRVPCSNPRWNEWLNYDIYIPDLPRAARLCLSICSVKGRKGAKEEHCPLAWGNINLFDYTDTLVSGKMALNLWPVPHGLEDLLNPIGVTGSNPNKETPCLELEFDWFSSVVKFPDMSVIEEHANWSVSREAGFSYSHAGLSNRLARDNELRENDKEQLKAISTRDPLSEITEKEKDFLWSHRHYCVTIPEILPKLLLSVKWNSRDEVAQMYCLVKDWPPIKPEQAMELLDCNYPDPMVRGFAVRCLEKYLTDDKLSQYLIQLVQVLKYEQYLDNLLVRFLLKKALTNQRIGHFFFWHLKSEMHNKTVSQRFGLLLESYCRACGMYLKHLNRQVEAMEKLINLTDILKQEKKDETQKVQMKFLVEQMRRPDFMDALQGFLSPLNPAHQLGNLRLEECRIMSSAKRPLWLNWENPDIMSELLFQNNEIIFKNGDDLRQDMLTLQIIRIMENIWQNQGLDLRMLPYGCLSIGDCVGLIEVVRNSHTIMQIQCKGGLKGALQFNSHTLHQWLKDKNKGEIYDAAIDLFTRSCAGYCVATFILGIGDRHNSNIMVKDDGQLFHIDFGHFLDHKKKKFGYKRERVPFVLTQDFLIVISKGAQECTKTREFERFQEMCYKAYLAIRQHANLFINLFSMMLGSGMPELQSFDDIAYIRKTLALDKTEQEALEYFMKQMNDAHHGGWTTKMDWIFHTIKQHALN
PDGFRB, sequence (P09619 whole entry): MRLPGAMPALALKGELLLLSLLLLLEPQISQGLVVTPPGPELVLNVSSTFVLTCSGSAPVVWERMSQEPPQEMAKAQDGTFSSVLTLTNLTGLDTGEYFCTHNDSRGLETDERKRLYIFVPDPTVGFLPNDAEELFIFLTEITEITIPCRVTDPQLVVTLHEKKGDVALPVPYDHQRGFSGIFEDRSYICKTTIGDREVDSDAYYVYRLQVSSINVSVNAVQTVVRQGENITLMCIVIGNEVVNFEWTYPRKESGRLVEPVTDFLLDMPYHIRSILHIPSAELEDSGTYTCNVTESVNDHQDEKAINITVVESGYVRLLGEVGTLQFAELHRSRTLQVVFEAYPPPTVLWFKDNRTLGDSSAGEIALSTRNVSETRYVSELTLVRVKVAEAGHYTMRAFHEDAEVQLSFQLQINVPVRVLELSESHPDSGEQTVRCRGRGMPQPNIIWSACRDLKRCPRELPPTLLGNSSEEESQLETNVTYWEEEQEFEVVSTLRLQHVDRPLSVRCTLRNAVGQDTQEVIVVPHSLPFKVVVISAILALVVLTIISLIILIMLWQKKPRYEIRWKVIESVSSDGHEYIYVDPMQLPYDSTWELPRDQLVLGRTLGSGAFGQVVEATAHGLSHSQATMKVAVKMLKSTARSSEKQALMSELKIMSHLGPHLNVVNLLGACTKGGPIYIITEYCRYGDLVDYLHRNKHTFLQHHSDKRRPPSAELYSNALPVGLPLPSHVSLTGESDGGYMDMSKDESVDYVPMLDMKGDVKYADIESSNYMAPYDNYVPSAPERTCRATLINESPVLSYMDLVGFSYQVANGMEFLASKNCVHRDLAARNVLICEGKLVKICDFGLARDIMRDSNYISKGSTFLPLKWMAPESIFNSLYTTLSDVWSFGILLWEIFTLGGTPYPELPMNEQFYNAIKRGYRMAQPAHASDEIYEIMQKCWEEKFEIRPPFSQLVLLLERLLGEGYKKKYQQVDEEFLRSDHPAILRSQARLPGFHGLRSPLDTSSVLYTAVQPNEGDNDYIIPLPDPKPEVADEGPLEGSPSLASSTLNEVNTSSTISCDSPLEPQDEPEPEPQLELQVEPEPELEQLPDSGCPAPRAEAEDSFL
IRAK1, sequence (P51617 whole entry): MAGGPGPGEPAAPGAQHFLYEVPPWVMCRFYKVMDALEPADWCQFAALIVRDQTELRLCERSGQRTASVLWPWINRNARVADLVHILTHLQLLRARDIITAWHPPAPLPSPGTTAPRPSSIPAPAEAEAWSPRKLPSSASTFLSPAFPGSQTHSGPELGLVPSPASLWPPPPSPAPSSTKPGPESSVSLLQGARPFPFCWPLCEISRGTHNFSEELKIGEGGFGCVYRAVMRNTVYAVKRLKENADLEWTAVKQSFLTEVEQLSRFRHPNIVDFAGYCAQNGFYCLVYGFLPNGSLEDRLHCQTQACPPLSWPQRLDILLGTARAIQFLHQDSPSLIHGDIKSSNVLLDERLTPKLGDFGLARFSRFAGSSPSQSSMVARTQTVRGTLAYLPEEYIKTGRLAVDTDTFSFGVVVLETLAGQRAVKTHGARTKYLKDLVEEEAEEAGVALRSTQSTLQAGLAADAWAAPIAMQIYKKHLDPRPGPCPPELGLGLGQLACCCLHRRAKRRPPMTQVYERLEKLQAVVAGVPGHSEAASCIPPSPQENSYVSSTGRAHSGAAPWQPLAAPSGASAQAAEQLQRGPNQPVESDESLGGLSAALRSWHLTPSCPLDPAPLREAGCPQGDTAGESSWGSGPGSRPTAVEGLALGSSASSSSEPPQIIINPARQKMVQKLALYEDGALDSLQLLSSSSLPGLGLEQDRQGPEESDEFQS
CSNK1A1L, sequence (Q8N752 whole entry): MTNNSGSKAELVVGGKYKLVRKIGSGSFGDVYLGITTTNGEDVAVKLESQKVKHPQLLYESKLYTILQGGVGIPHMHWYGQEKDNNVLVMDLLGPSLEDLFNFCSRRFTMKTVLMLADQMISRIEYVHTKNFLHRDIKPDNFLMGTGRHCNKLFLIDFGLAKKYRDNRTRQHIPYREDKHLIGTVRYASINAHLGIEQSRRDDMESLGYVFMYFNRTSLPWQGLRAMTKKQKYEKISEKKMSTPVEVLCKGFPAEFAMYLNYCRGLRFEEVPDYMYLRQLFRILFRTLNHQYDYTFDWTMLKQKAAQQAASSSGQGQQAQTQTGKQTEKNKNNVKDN
MKNK2, sequence (Q9HBH9 whole entry): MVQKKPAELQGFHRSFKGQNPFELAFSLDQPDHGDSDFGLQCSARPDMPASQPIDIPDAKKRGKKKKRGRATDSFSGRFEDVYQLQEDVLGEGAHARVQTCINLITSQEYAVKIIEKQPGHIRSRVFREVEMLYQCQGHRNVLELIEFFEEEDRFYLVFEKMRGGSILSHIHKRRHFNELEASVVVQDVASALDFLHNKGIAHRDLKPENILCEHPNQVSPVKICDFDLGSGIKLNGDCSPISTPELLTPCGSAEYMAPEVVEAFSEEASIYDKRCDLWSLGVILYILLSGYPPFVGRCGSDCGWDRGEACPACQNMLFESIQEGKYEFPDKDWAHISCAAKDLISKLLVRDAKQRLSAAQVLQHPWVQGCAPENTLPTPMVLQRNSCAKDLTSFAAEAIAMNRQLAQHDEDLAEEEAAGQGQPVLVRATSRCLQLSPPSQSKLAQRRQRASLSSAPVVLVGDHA

Which results are given for `Cc1cnc2nc1Nc1cccc(c1)COCc1cc(ccc1OCCN1CCCC1)N2` [Compound 1]?
remaining binding at 0.1 µM [1]: 96%; remaining binding at 0.1 µM (ZAK): 100%; remaining binding at 0.1 µM (IKK-alpha): 96%; remaining binding at 0.1 µM (TSSK3): 78%; remaining binding at 0.1 µM (PIK3CA(H1047L)): 74%; remaining binding at 0.1 µM (PDGFRB): 51%; remaining binding at 0.1 µM (MAP4K2): 78%; remaining binding at 0.1 µM (RET(V804M)): 80%; remaining binding at 0.1 µM (LATS1): 100%; remaining binding at 0.1 µM (SGK2): 97%; remaining binding at 0.1 µM (CHEK2): 87%; remaining binding at 0.1 µM (PIK3CA(Q546K)): 70%; remaining binding at 0.1 µM [2]: 97%; remaining binding at 0.1 µM (MKNK2): 67%; remaining binding at 0.1 µM (LZK): 63%; remaining binding at 0.1 µM [3]: 88%; remaining binding at 0.1 µM (VRK2): 97%; remaining binding at 0.1 µM (MAP3K15): 68%; remaining binding at 0.1 µM (PAK1): 100%; remaining binding at 0.1 µM (IRAK1): 31%; remaining binding at 0.1 µM (MLK3): 94%; remaining binding at 0.1 µM (CSNK1A1L): 61%; remaining binding at 0.1 µM [4]: 64%; remaining binding at 0.1 µM (MRCKB): 96%
